From patent US6509344B1, “Indenoisoquinolines as antineoplastic agents” (The United States of America as represented by the …, priority 1998, dated 2003)

Columns and labels:
SN12C = experiment: NCI human cancer cell line screen (COMPARE screening), Renal SN12C; format: cell-based; details: Homo sapiens; SN12C; concentration causing 50% growth inhibition; read-out: Cytotoxicity (G150 in μM) Renal SN12C
Text: (§1) Considering the diversity of cancer in terms of cell type, morphology, growth rate and other cellular characteristics, the U.S. National Cancer Institute (NCI) has developed a “disease-oriented” approach to anticancer activity screening (M. R. Boyd, in “Principle of Practice of Oncology” […]. Rosenberg (Eds.) Vol. 3, PPO Update, No. 10, 1989). This in vitro prescreening system is based on the measurement of anticancer cytotoxicity against human cancer cell line panels consisting of approximately 60 cell lines of major human cancers (including leukemia and slower growing tumor cells such as lung, colon, breast, skin, kidney, etc.) and is referred hereinafter as “COMPARE” screening. An important advantage of the new in vitro screening panels is the opportunity to facilitate identification of compounds that are selectively more cytotoxic to cells of certain types of cancers, thus increasing the ability to select compounds for further study with respect to specific diseases. The indenoisoquinolines were examined for antiproliferative activity against the human cancer cell lines in the National Cancer Institute screen (COMPARE screening), in which the activity of each compound was evaluated with approximately […] different cancer cell lines of diverse tumor origins.

OVCAR-3 = experiment: NCI human cancer cell line screen (COMPARE screening), Ovarian OVCAR-3; format: cell-based; details: Homo sapiens; OVCAR-3; concentration causing 50% growth inhibition; read-out: Cytotoxicity (G150 in μM) Ovarian OVCAR-3
Text: as §1

topoisomerase I = biological target: T1, topoisomerase I (Homo sapiens, UniProt P11387); experiment: Topoisomerase I-mediated DNA cleavage assay (3'-end-labeled 161 bp pBluescript SK(-) fragment); format: biochemical; details: relative to the activity of 1 μM camptothecin
T1 sequence (P11387 1-765): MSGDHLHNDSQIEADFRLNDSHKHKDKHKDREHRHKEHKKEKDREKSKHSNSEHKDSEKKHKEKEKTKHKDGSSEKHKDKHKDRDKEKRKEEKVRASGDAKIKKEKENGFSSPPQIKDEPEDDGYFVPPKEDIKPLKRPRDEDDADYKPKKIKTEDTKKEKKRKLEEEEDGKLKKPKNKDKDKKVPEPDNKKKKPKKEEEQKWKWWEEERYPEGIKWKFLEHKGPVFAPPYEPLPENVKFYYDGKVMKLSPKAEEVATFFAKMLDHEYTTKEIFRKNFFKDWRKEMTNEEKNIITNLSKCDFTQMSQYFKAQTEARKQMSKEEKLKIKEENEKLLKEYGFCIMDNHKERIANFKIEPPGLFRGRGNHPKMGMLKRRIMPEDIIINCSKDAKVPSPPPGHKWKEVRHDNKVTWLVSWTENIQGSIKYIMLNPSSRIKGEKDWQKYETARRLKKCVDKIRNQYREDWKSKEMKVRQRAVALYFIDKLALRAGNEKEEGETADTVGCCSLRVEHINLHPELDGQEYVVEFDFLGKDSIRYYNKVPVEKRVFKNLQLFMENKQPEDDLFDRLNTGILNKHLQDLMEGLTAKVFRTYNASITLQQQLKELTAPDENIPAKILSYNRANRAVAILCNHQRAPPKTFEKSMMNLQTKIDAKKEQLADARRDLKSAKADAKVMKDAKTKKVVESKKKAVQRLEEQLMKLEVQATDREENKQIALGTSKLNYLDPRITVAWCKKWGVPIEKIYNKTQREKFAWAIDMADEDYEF
Procedure: Topoisomerase I-Mediated DNA Cleavage Reactions Using 3′-End-labeled 161 BP Plasmid DNA
The 161 bp fragment from pBluescript SK(−) phagemid DNA (Stratagene, La Jolla, Calif.) was cleaved with the restriction endonuclease Pvu II and Hind III (New England Biolabs, Beverly, Mass.) in supplied NE buffer 2 (10 μL reactions) for 1 h at 37° C., separated by electrophoresis in a 1% agarose gel made in 1×TBE buffer. The 161 bp fragment was eluted from the gel slice (centrilutor by Amicon) and concentrated in a centricon 50 centrifugal concentrator (Amicon, Beverly, Mass.). Approximately 200 ng of the fragment was 3′-end-labeled at the Hind III site by fill-in reaction with [alpha-^32P]-dCTP and 0.5 mM dATP, dGTP, and dTTP, in React 2 buffer (50 mM Tris-HCl, pH 8.0, […], 50 mM NaCl) with 0.5 units of DNA polymerase I (Klenow fragment). Labeling reactions were followed by phenol-chloroform extraction and ethanol precipitation. The resulting 161 bp 3′-endlabeled DNA fragment was resuspended in water. Aliquots (approximately 50,000 dpm/reaction) were incubated with topoisomerase I at 30° C. for 15 min in the presence of the indicated drug. Reactions were terminated by adding 0.5% SDS. After ethanol precipitation, the samples were resuspended in loading buffer (80% formamide, 10 mM sodium hydroxide, 1 mM sodium EDTA, 0.1% xylene cyanol, and 0.1% bromophenol blue, pH 8.0), and separated in a denaturing gel (16% polyacrylamide, 7 M urea) run at 51° C. The gel was dried and visualized by using a Phosphoimager and ImageQuant software (Molecular Dynamics, Sunnyvale, Calif.).

MDA-MB-435 = experiment: NCI human cancer cell line screen (COMPARE screening), Breast MDA-MB-435; format: cell-based; details: Homo sapiens; MDA-MB-435; concentration causing 50% growth inhibition; read-out: Cytotoxicity (G150 in μM) Breast MDA-MB-435
Text: as §1

SF-539 = experiment: NCI human cancer cell line screen (COMPARE screening), CNS SF-539; format: cell-based; details: Homo sapiens; SF-539; concentration causing 50% growth inhibition; read-out: Cytotoxicity (G150 in μM) CNS SF-539
Text: as §1

[1] = test system: approximately 55 different cancer cell lines of diverse tumor origins; experiment: NCI screen mean graph midpoint over all cell lines tested; format: cell-based, human; details: for IC50: Homo sapiens, average GI50 for all cell lines tested (approximately 55), values outside test range taken as 10^-8 or 10^-4 molar, read-out: MGM (mean graph midpoint); for cytotoxicity (MGM) relative to lead compound 1: comparison in words
Text: as §1

UACC-62 = experiment: NCI human cancer cell line screen (COMPARE screening), Melanoma UACC-62; format: cell-based; details: Homo sapiens; UACC-62; concentration causing 50% growth inhibition; read-out: Cytotoxicity (G150 in μM) Melanoma UACC-62
Text: as §1

HCT-116 = experiment: NCI human cancer cell line screen (COMPARE screening), Colon HCT-116; format: cell-based; details: Homo sapiens; HCT-116; concentration causing 50% growth inhibition; read-out: Cytotoxicity (G150 in μM) Colon HCT-116
Text: as §1

DU-145 = experiment: NCI human cancer cell line screen (COMPARE screening), Prostate DU-145; format: cell-based; details: Homo sapiens; DU-145; concentration causing 50% growth inhibition; read-out: Cytotoxicity (G150 in μM) Prostate DU-145
Text: as §1

HOP-62 = experiment: NCI human cancer cell line screen (COMPARE screening), Lung HOP-62; format: cell-based; details: Homo sapiens; HOP-62; concentration causing 50% growth inhibition; read-out: Cytotoxicity (G150 in μM) Lung HOP-62
Text: as §1

Row | Top 1 Cleavage (topoisomerase I) | SMILES | IC50 (SN12C) | IC50 (OVCAR-3) | IC50 (MDA-MB-435) | IC50 (SF-539) | IC50 [1] | IC50 (UACC-62) | IC50 (HCT-116) | IC50 (DU-145) | IC50 (HOP-62) | cytotoxicity (MGM) relative to lead compound 1 [1]
1 | 0 | O=C1c2ccccc2-c2oc(=O)c3ccccc3c21 [Compound 2, benz[d]indeno[1,2-b]pyran-5,11-dione] | > 100 µM | > 100 µM | > 100 µM | > 100 µM | 85 µM | > 100 µM | > 100 µM | > 100 µM | > 100 µM | 
2 | 0 | CCn1c2c(c3ccccc3c1=O)C(=O)c1ccccc1-2 [Compound 3, 6-Ethyl-5,6-dihydro-5,11-diketo-11H-indeno[1,2-c]isoquinoline] |  |  |  |  |  |  |  |  |  | 
3 | 0 | CCCn1c2c(c3ccccc3c1=O)C(=O)c1ccccc1-2 [Compound 4, 5,6-Dihydro-5,11-diketo-6-propyl-11H-indeno[1,2-c]isoquinoline] |  |  |  |  |  |  |  |  |  | 
4 | 0 | O=C1c2ccccc2-c2c1c1ccccc1c(=O)n2C1CC1 [Compound 5, 6-Cyclopropyl-5,6-dihydro-5,11-diketo-11H-indeno[1,2-c]isoquinoline] | > 100 µM | > 100 µM | > 100 µM | > 100 µM | 98 µM | 84 µM | > 100 µM | > 100 µM | 61 µM | 
5 | 0 | COC(=O)Cn1c2c(c3ccccc3c1=O)C(=O)c1ccccc1-2 [Compound 6, 5,6-Dihydro-5,11-diketo-6-(methoxycarbonylmethyl)-11H-indeno[1,2-c]isoquinoline] | > 100 µM | > 100 µM | > 100 µM | > 100 µM | 81 µM | > 100 µM |  | > 100 µM |  | 
6 | 0 | COc1cc2c(c(OC)c1OC)C(=O)c1c-2n(C)c(=O)c2ccccc12 [Compound 13j, 5,6-Dihydro-5,11-diketo-6-methyl-8,9,10-trimethoxy-11H-indeno[1,2-c]isoquinoline] | > 100 µM | > 100 µM |  | > 100 µM | 78 µM |  |  | > 100 µM | 24 µM | 
7 | 0 | CCN1C(=O)c2cc(OC)c(OC)cc2[C@@H]2[C@H]1c1cc3c(cc1[C@@H]2O)OCO3 [Compound 24, 6-Ethyl-5,6,12α,13α-tetrahydro-11β-hydroxy-2,3-dimethoxy-8,9-(methylenedioxy)-5-oxo-11H-indeno[1,2-c]isoquinoline] | > 100 µM | > 100 µM | > 100 µM | > 100 µM | 100 µM |  | > 100 µM | > 100 µM | > 100 µM | 
8 | 0 | CCN1Cc2cc(OC)c(OC)cc2[C@@H]2[C@H]1c1cc3c(cc1[C@@H]2O)OCO3 [Compound 25, 6-Ethyl-5,6,12α,13α-tetrahydro-11β-hydroxy-2,3-dimethoxy-8,9-(methylenedioxy)-11H-indeno[1,2-c]isoquinoline] | 26 µM | 24 µM | 25 µM | 50 µM | 31 µM |  | 35 µM | 41 µM | 30 µM | 

Row | SMILES | Top 1 Cleavage (topoisomerase I) | IC50 (SN12C) | IC50 (OVCAR-3) | IC50 (MDA-MB-435) | IC50 (SF-539) | IC50 [1] | IC50 (UACC-62) | IC50 (HCT-116) | IC50 (DU-145) | IC50 (HOP-62) | cytotoxicity (MGM) relative to lead compound 1 [1]
9 | Cn1c2c(c3ccccc3c1=O)C(=O)c1cc3c(cc1-2)OCO3 [Compound 13a, 5,6-Dihydro-5,11-diketo-6-methyl-8,9-methylenedioxy-11H-indeno[1,2-c]isoquinoline] | + (those compounds having between 20% and 50% of the activity of 1 μM camptothecin) | > 100 µM | > 100 µM |  |  | 45 µM | > 100 µM | 54 µM | > 100 µM | 22 µM | 
10 | CCCCn1c2c(c3cc(OC)c(OC)cc3c1=O)C(=O)c1cc3c(cc1-2)OCO3 [Compound 13d, 6-(1-Butyl)-5,6-dihydro-5,11-diketo-2,3-dimethoxy-8,9-methylenedioxy11H-indeno[1,2-c]isoquinoline] | + (those compounds having between 20% and 50% of the activity of 1 μM camptothecin) |  | 78 µM | > 100 µM |  | 42 µM | 21 µM | 45 µM | 16 µM | 16 µM | 
11 | COc1cc2c3c(n(Cc4ccccc4)c(=O)c2cc1OC)-c1cc2c(cc1C3=O)OCO2 [Compound 13e, 6-Benzyl-5,6-dihydro-5,11-diketo 2,3-dimethoxy-8,9-methylenedioxy-11H-indeno[1,2-c]isoquinoline] | ± (those compounds having less than 20% of the activity of 1 μM camptothecin) |  | > 100 µM | > 100 µM |  | 42 µM | 50 µM | > 100 µM | 4 µM | 12 µM | lower MGM than the lead compound 1
12 | COc1cc2c3c(n(C)c(=O)c2cc1OC)-c1cc(OC)c(OS(C)(=O)=O)cc1C3=O [Compound 23, 5,6-Dihydro-5,11-diketo-2,3,8-trimethoxy-6-methyl-9[(methylsulfonyl)oxy]-(11H)indeno[1,2-c]isoquinoline] | ± (those compounds having less than 20% of the activity of 1 μM camptothecin) |  |  |  |  |  |  |  |  |  | 
13 | CC[n+]1cc2cc(OC)c(OC)cc2c2c1-c1cc3c(cc1C2)OCO3 [Compound 27, 6-Ethyl-2,3-dimethoxy-8,9-(methylenedioxy)-11H-indeno[1,2-c]isoquinolinium Chloride] | ++ (those compounds having greater than 50% of the activity of 1 μM camptothecin) | 2.7 µM | 1.9 µM | 14 µM | 5.6 µM | 13 µM |  | 13 µM | 58 µM | 22 µM | lower MGM than the lead compound 1
